Data taken from patent US20220332701A1, “HETEROCYCLIC COMPOUNDS AS BCR-ABL INHIBITORS” (ASCENTAGE PHARMA (SUZHOU) CO., LTD., priority 2019, published 2022).

Tests used:
BaF3(WT) = BaF3(WT) (Homo sapiens, UniProt P00519); assay: WST (CCK-8) anti-proliferation assay, BaF3 WT cells; conditions: read-out: BaF3(WT); anti-proliferative IC50, 72 h treatment, CCK-8, BaF3 WT
BaF3(T315I) = BaF3(T315I) (Homo sapiens, UniProt P00519, T315I, cells depend on it); assay: WST (CCK-8) anti-proliferation assay, BaF3 T315I cells; conditions: read-out: BaF3(T315I); anti-proliferative IC50, 72 h treatment, CCK-8, BaF3 T315I

Row | GI50 (BaF3(WT)) | GI50 (BaF3(T315I)) | SMILES
1 | 41 nM | 395 nM | CC1CN(C(C)C)c2c(-c3cncnc3)cc(C(=O)Nc3ccc(OC(F)(F)Cl)cc3)cc21 (stereo not drawn) [VII-37, N-(4-(chlorodifluoromethoxy)phenyl)-1-isopropyl-3-methyl-7-(pyrimidin-5-yl)indoline-5-carboxamide]
2 | 145 nM | 1350 nM | CC(C)N1c2c(cc(C(=O)Nc3ccc(OC(F)(F)Cl)cc3)cc2-c2cncnc2)CC1C(=O)NCCS(C)(=O)=O (stereo not drawn) [VII-22, N5-(4-(chlorodifluoromethoxy)phenyl)-1-isopropyl-N2-(2-(methylsulfonyl)ethyl)-7-(pyrimidin-5-yl)indoline-2,5-dicarboxamide]
3 | 49 nM | 163 nM | CC(C)N1c2c(cc(C(=O)Nc3ccc(OC(F)(F)Cl)cc3)cc2-c2ccn[nH]2)CC1C(=O)N1CCN(C)CC1 (stereo not drawn) [VII-33, N-(4-(chlorodifluoromethoxy)phenyl)-1-isopropyl-2-(4-methylpiperazine-1-carbonyl)-7-(1H-pyrazol-5-yl)indoline-5-carboxamide]
4 | 22 nM | 136 nM | O=C(Nc1ccc(OC(F)(F)Cl)cc1)c1cc2c(c(-c3ccn[nH]3)c1)C1(CCCC1)C(=O)N2 [V-3, N-(4-(chlorodifluoromethoxy)phenyl)-2′-oxo-4′-(1H-pyrazol-5-yl)spiro[cyclopentane-1,3′-indoline]-6′-carboxamide]
5 | 231 nM | 1740 nM | CC(C)N1c2c(cc(C(=O)Nc3ccc(OC(F)(F)Cl)cc3)cc2-c2ccn[nH]2)CC1CC(=O)N(C)C (stereo not drawn) [VII-36, N-(4-(chlorodifluoromethoxy)phenyl)-2-(2-(dimethylamino)-2-oxoethyl)-1-isopropyl-7-(1H-pyrazol-5-yl)indoline-5-carboxamide]
6 | 144 nM | 335 nM | O=C(Nc1ccc(OC(F)(F)Cl)cc1)c1cc2c(c(-c3cc[nH]n3)c1)C1(CCC(O)C1)C(=O)N2 (stereo not drawn) [V-5, N-(4-(chlorodifluoromethoxy)phenyl)-3-hydroxy-2′-oxo-4′-(1H-pyrazol-5-yl)spiro[cyclopentane-1,3′-indoline]-6′-carboxamide]
7 | 22 nM | 176 nM | CC(=O)N1CC(C)(C)c2c(-c3ccn[nH]3)cc(C(=O)Nc3ccc(OC(F)(F)Cl)cc3)cc21 [III-4, 1-acetyl-N-(4-(chlorodifluoromethoxy)phenyl)-3,3-dimethyl-4-(1H-pyrazol-5-yl)indoline-6-carboxamide]
8 | 16 nM | 94 nM | COCCN(CCOC)C(=O)C1Cc2cc(C(=O)Nc3ccc(OC(F)(F)Cl)cc3)cc(-c3ccn[nH]3)c2N1C(C)C (stereo not drawn) [VII-30, N^5-(4-(chlorodifluoromethoxy)phenyl)-1-isopropyl-N2,N2-bis(2-methoxyethyl)-7-(1H-pyrazol-5-yl)indoline-2,5-dicarboxamide]
9 | 123 nM | 574 nM | O=C(Nc1ccc(OC(F)(F)Cl)cc1)c1cc2c(c(-c3ccn[nH]3)c1)N(C1CCCCC1)CC2 [VII-3, N-(4-(chlorodifluoromethoxy)phenyl)-1-cyclohexyl-7-(1H-pyrazol-5-yl) indoline-5-carboxamide]
10 | 113 nM | 144 nM | CN1CCc2cc(C(=O)Nc3ccc(OC(F)(F)Cl)cc3)cc(-c3ccn[nH]3)c21 [VII-7, N-(4-(chlorodifluoromethoxy)phenyl)-1-methyl-7-(1H-pyrazol-5-yl)indoline-5-carboxamide]
11 | 173 nM | 1190 nM | CC(C)N1c2c(cc(C(=O)Nc3ccc(OC(F)(F)Cl)cc3)cc2-c2ccn[nH]2)CC1CC(=O)N1CCOCC1 (stereo not drawn) [VII-35, N-(4-(chlorodifluoromethoxy)phenyl)-1-isopropyl-2-(2-morpholino-2-oxoethyl)-7-(1H-pyrazol-5-yl)indoline-5-carboxamide]
12 | 505 nM | 3270 nM | CC(C)n1cc(Cl)c2cc(C(=O)Nc3ccc(OC(F)(F)Cl)cc3)cc(-c3ccn[nH]3)c21 [XII-3, 3-chloro-N-(4-(chlorodifluoromethoxy)phenyl)-1-isopropyl-7-(1H-pyrazol-5-yl)-1H-indole-5-carboxamide]
13 | 39 nM | 199 nM | CC(C)N1c2c(cc(C(=O)Nc3ccc(OC(F)(F)Cl)cc3)cc2-c2ccn[nH]2)CC1C(=O)N(C)C (stereo not drawn) [VII-26, N5-(4-(chlorodifluoromethoxy)phenyl)-1-isopropyl-N2,N2-dimethyl-7-(1H-pyrazol-5-yl)indoline-2,5-dicarboxamide]
14 | 112 nM | 250 nM | O=C(Nc1ccc(OC(F)(F)Cl)cc1)c1cc2c(c(-c3ccn[nH]3)c1)N(CCO)CC2 [VII-6, N-(4-(chlorodifluoromethoxy)phenyl)-1-(2-hydroxyethyl)-7-(1H-pyrazol-5-yl) indoline-5-carboxamide]

Further lines, the molecule ahead of its results:

Row | SMILES | GI50 (BaF3(WT)) | GI50 (BaF3(T315I))
15 | Cc1cn(C(C)C)c2c(-c3cncnc3)cc(C(=O)Nc3ccc(OC(F)(F)Cl)cc3)cc12 [XII-5, N-(4-(chlorodifluoromethoxy)phenyl)-1-isopropyl-3-methyl-7-(pyrimidin-5-yl)-1H-indole-5-carboxamide] | 103 nM | 3180 nM
16 | Cc1cn(C(C)C)c2c(-c3ccn[nH]3)cc(C(=O)Nc3ccc(OC(F)(F)Cl)cc3)cc12 [XII-6, N-(4-(chlorodifluoromethoxy)phenyl)-1-isopropyl-3-methyl-7-(1H-pyrazol-5-yl)-1H-indole-5-carboxamide] | 22 nM | 511 nM
17 | O=C(Nc1ccc(OC(F)(F)Cl)cc1)c1cc2c(c(-c3ccn[nH]3)c1)C1(CCCCC1)C(=O)N2 [V-11, N-(4-(chlorodifluoromethoxy)phenyl)-2′-oxo-4′-(1H-pyrazol-5-yl)spiro[cyclohexane-1,3′-indoline]-6′-carboxamide] | 8 nM | 40 nM
18 | CNCC1CN(C(C)C)c2c(-c3ccn[nH]3)cc(C(=O)Nc3ccc(OC(F)(F)Cl)cc3)cc21 (stereo not drawn) [VII-28, N-(4-(chlorodifluoromethoxy)phenyl)-1-isopropyl-3-((methylamino)methyl)-7-(1H-pyrazol-5-yl)indoline-5-carboxamide] | 132 nM | 575 nM
19 | CC(C)N1CC(C)(C)c2cc(C(=O)Nc3ccc(OC(F)(F)Cl)cc3)cc(-c3ccn[nH]3)c21 [VII-40, N-(4-(chlorodifluoromethoxy)phenyl)-1-isopropyl-3,3-dimethyl-7-(1H-pyrazol-5-yl)indoline-5-carboxamide] | 20 nM | 256 nM
20 | CC(C)N1c2c(cc(C(=O)Nc3ccc(OC(F)(F)Cl)cc3)cc2-c2ccn[nH]2)CC1CN(C)C (stereo not drawn) [VII-13, N-(4-(chlorodifluoromethoxy)phenyl)-2-((dimethylamino)methyl)-1-isopropyl-7-(1H-pyrazol-5-yl)indoline-5-carboxamide] | 266 nM | 1410 nM
21 | CC(C)N1c2c(cc(C(=O)Nc3ccc(OC(F)(F)Cl)cc3)cc2-c2ccn[nH]2)CC1C(=O)N1CCS(=O)(=O)CC1 (stereo not drawn) [VII-31, N-(4-(chlorodifluoromethoxy)phenyl)-2-(1,1-dioxidothiomorpholine-4-carbonyl)-1-isopropyl-7-(1H-pyrazol-5-yl)indoline-5-carboxamide] | 78 nM | 423 nM
22 | CN1CCN(CCN2C(=O)c3cc(C(=O)Nc4ccc(OC(F)(F)Cl)cc4)cc(-c4ccn[nH]4)c3C2(C)C)CC1 [IV-6, N-(4-(chlorodifluoromethoxy)phenyl)-1,1-dimethyl-2-(2-(4-methylpiperazin-1-yl)ethyl)-3-oxo-7-(1H-pyrazol-5-yl)isoindoline-5-carboxamide] | 501 nM | 1570 nM
23 | CC(C)N1CCc2cc(C(=O)Nc3ccc(OC(F)(F)Cl)cc3)cc(-c3cncnc3)c21 [VII-4, N-(4-(chlorodifluoromethoxy)phenyl)-1-isopropyl-7-(pyrimidin-5-yl)indoline-5-carboxamide] | 42 nM | 136 nM
24 | CN1CC(C)(C)c2c(-c3ccn[nH]3)cc(C(=O)Nc3ccc(OC(F)(F)Cl)cc3)cc21 [III-2, N-(4-(chlorodifluoromethoxy)phenyl)-1,3,3-trimethyl-4-(1H-pyrazol-5-yl)indoline-6-carboxamide] | 78 nM | 2060 nM
25 | CC(C)N1c2c(cc(C(=O)Nc3ccc(OC(F)(F)Cl)cc3)cc2-c2cncnc2)CC1C(=O)O (stereo not drawn) [VII-21, 5-((4-(chlorodifluoromethoxy)phenyl)carbamoyl)-1-isopropyl-7-(pyrimidin-5-yl)indoline-2-carboxylic acid] | 158 nM | 1610 nM
26 | CC(C)n1ccc2cc(C(=O)Nc3ccc(OC(F)(F)Cl)cc3)cc(-c3ccn[nH]3)c21 [XII-1, N-(4-(chlorodifluoromethoxy)phenyl)-1-isopropyl-7-(1H-pyrazol-5-yl)-1H-indole-5-carboxamide] | 115 nM | 654 nM
27 | CC1(C)CN(S(C)(=O)=O)c2cc(C(=O)Nc3ccc(OC(F)(F)Cl)cc3)cc(-c3ccn[nH]3)c21 [III-5, N-(4-(chlorodifluoromethoxy)phenyl)-3,3-dimethyl-1-(methylsulfonyl)-4-(1H-pyrazol-5-yl)indoline-6-carboxamide] | 61 nM | 418 nM
28 | CC1(C)C(=O)Nc2cc(C(=O)Nc3ccc(OC(F)(F)Cl)cc3)cc(-c3ccn[nH]3)c21 [V-1, N-(4-(chlorodifluoromethoxy)phenyl)-3,3-dimethyl-2-oxo-4-(1H-pyrazol-5-yl)indoline-6-carboxamide] | 45 nM | 71 nM
29 | CN1C(=O)C(C)(C)c2cc(C(=O)Nc3ccc(OC(F)(F)Cl)cc3)cc(-c3ccn[nH]3)c21 [VIII-1, N-(4-(chlorodifluoromethoxy)phenyl)-1,3,3-trimethyl-2-oxo-7-(1H-pyrazol-5-yl)indoline-5-carboxamide] | 458 nM | 3680 nM
30 | CC(C)N1CCc2cc(C(=O)Nc3ccc(OC(F)(F)Cl)cc3)cc(-c3ccn[nH]3)c21 [VII-1, N-(4-(chlorodifluoromethoxy)phenyl)-1-isopropyl-7-(1H-pyrazol-5-yl)indoline-5-carboxamide] | 26 nM | 91 nM
